# Source: patent US11726088B2, “Sirtuin 4 (SIRT4) lipoamidase activity and uses thereof” (THE TRUSTEES OF PRINCETON UNIVERSITY, priority 2014, dated 2023)
# Peptide text beside a SMILES is read from it.
# Tests used:
# [1] = test system: PDH; assay: PDH activity assay (immunocapture colorimetric) in fibroblasts stimulated with glutamax; type: cell-based, human; conditions: WT fibroblasts, glutamax 4 mM, versus unstimulated cells
# Protocol: PDH activity assay. The activity of the PDHC in MRC5 derivate cell lines was measured using the Pyruvate Dehydrogenase Enzyme Activity Microplate Assay Kit (Abcam, cat. #ab109902) according to manufacturer's instructions. 1000 μg/well of cultured cell extract from each line being tested was used as input for PDHC binding, and 5 μg/well of pyruvate dehydrogenase from porcine heart (Sigma-Aldrich, cat. #P7032) used as a positive control for the assay. PDH activity was measured by reduction of NAD+ to NADH, coupled to the reduction of a reporter dye to yield a colored reaction product with an increase in absorbance at 450 nm at room temperature. […] Statistical significance was assessed by one-way ANOVA in GraphPad Prism 5. […]
# We next investigated a cellular condition known to inhibit PDH activity, and examined the involvement of SIRT4 in this process. […] In agreement with these observations, we detected elevated expression of endogenous SIRT4 in cells stimulated with glutamax (FIG. 3J). To validate the dependence of PDH inhibition on SIRT4 activity, we first measured PDH activity in SIRT4 OE cells stimulated with glutamax. […] It remains to be determined whether residual SIRT4 still functions in these knocked-down lines to decrease PDH activity following glutamax stimulation, or another yet to be identified PDH inhibition mechanism is at play. […]
# [2] = test system: DLAT lipoyl (K132 and K259); assay: DLAT lipoyl levels by PRM quantification in glutamax-stimulated cells; type: cell-based, human; conditions: glutamax stimulation, within 48 hr
# Protocol: Lipoyl-lysine SRM assay. The relative abundance of lipoyl-lysine-containing peptides identified from immunoisolated, in-gel digested DLAT (described above) was measured in mitochondria lysates using a selected reaction monitoring (SRM) full-scan tandem mass spectrometry assay. Purified mitochondria were isolated from MRC5 stable cell lines expressing EGFP, SIRT4-EGFP, and SIRT4-targeting shRNA (described above). Mitochondria pellets were lysed by agitation and bath sonication in 100 μL of hot (95° C.) buffer containing 0.1 M ammonium bicarbonate, 5 mM tris(2-carboxyethyl)phosphine, 1 mM nicotinamide, and 0.1% RapiGest. Protein concentration was determined using the Bradford reagent (Sigma). […] Eluates from the same sample were pooled and concentrated to near-dryness, diluted to 8 μL, and half were analyzed by an LC-SRM-MS/MS assay on an LTQ Orbitrap Velos mass spectrometry (Thermofisher Scientific). […] At least four co-eluting XICs (dot-product score of ≥0.95) were used for peak area quantification. […] Peak areas were summed across XICs, exported to Excel, and normalized across biological replicates (n=3-6) using the average chromatographic precursor intensity calculated by RawMeat (Vast Scientific, Inc). Statistical significance was determined by unpaired, two-tailed t-tests in Microsoft Excel. […]
smiles,measurement,setting,value
C[C@H](N)C(=O)N[C@@H](CCC(N)=O)C(=O)O [glutamax] (H-Ala-Gln-OH),PDH activity,[1],significant time-dependent decrease
same,DLAT lipoyl levels,[2],decrease
